Article PMC9820444, “Design and Synthesis of Acridine-Triazole and Acridine-Thiadiazole Derivatives and Their Inhibitory Effect against Cancer Cells” (International Journal of Molecular Sciences, 2022)
Where two headings read alike, the source gives them in different places. Marks after values point to notes of the source that are not given here.

How the values were obtained:
[1] = test system: human foreskin fibroblasts (HFF); test: MTT antiproliferative assay, HFF; format: cell-based; details: Homo sapiens, Fibroblast, read-out: Effect against cell viability (IC50), HFF
[2] = test system: human gastric cancer cells-803 (MGC-803); test: MTT antiproliferative assay, MGC-803; format: cell-based; details: Homo sapiens, MGC-803, MTT, read-out: Effect against cell viability (IC50), MGC-803
[3] = test system: bladder cancer cells (T24); test: MTT antiproliferative assay, T24; format: cell-based, human; details: Homo sapiens, read-out: Effect against cell viability (IC50), T24
T24 cells = test: Apoptosis by Annexin V-FITC/PI flow cytometry, T24; format: cell-based, human; details: T24, at IC50 concentration (4h 8.05 μM; 6h 8.93 μM); control 1.18%
Description: The apoptosis ratios of MGC80-3 or T24 cell lines induced by the selected compounds at the concentration of IC50 and 0.5 IC50 were quantitatively determined by flow cytometry. Four quadrant images (Q1, Q2, Q3 and Q4) were observed by flow cytometric analysis. The results of apoptosis ratios (including the early and late apoptosis ratios) after 12 h are presented in Figure 6 (MGC80-3) and Figure 7 (T24). […] After treatment with compound 6h, 5.62% (3.43 μM) and 14.25% (6.85 μM) of the cells were apoptotic. These were higher percentages than the one observed in the control (0.586%). […] The results evidently illustrate that representative compounds 5d and 6h or 4h and 6h could suppress cell proliferation by inducing apoptosis in the early apoptotic period.
The apoptosis assay and the cell cycle analysis were carried out by cytometry (FACSVerse, BD, Piscataway, NJ, USA) at an excitation wavelength of 488 nm according to the method described in the literature with slight modifications. The cells were seeded at 2 × 10^6/well and washed by cold PBS. The buffer solutions were prepared using 0.1 M pH 7.4 Hepes/NaOH, 1.4 M NaCl, and 25 mM CaCl2.

zebrafish embryos = zebrafish embryos 72 hpf

COc1ccc(-c2nnc(N=C3c4ccccc4NC4C=CC(C)=CC34)s2)cc1 (stereo not shown) [6h, 7-methyl-N-(5-(4-methoxyphenyl)-1,3,4-thiadiazol-2-yl)-10,10a-dihydroacridin-9(8aH)-imine]
IC50 [1]: 33.9 ± 1.28 µM
IC50 [2]: 6.85 ± 0.84 µM
IC50 [3]: 8.93 ± 1.25 µM
apoptosis ratio (T24 cells): 10.749%
MAR (malformation rate) (zebrafish embryos; 1 mg/mL): 35% ^b
MOR (mortality rate) (zebrafish embryos; 1 mg/mL): 0%
MAR (malformation rate) (zebrafish embryos; 1.5 mg/mL): 80% ^b
MOR (mortality rate) (zebrafish embryos; 1.5 mg/mL): 0%
MAR (malformation rate) (zebrafish embryos; 2 mg/mL): 65% ^b
MOR (mortality rate) (zebrafish embryos; 2 mg/mL): 15% ^b
